Test results: patent publication US20230109801A1 (Blue Oak Pharmaceuticals, Inc., priority 2020, published 2023)
Structures can show the parent of a compound that is named as a salt.

System: mice
Assay: SmartCube in vivo neuropharmacological behavioral assay
Conditions: for minimal effective dose: Mus musculus, ip, dose having 50% or more total activity in SmartCube, i.p., read-out: MED (minimal effective dose); for AD: antidepressant, percent probability / AG: analgesic, percent probability / AP: antipsychotic, percent probability / AX: anxiolytic, percent probability / CE: cognitive enhancer, percent probability / HA: hallucinogenic, percent probability / MS: mood stabilizer, percent probability / PS, percent probability / SD: sedative hypnotic, percent probability / SE: side effects, percent probability / UN: uncharacterized CNS activity, percent probability / XG: anxiogenic, percent probability: SmartCube, i.p. 15 min before test, at the MED
Experimental: The compounds were evaluated for their CNS related properties (e.g., the treatment, prevention or diagnosis of CNS or CNS-related disorders and/or amelioration of symptoms) using neuropharmacological screening methods described in S. L. Roberts et al., Front. Neurosci. 2011, 5:103 (hereinafter referred to as “Roberts,” the contents of which are incorporated herein by reference in their entirety).
According to Roberts, intact systems are useful in detecting improvement in disease-relevant endpoints, because psychiatric diseases generally result from disorders of cell-cell communication or circuitry. The endpoints are typically behavioral in nature, often requiring human observation and interpretation. In order to test multiple compounds for behavioral effects relevant to neurological and psychiatric diseases and disorders, PsychoGenics, Inc. (Paramus, N.J. “PGI”) developed SmartCube®, an automated system in which behaviors of compound-treated mice are captured by digital video and analyzed with computer algorithms to facilitate testing of multiple compounds for behavioral effects relevant to psychiatric disease. (D. Brunner et al., Drug Discov. Today 2002, 7:S107-S112; Alexandrov et al., Eur. J. Pharmacol. 2015, 753:127-134; the contents of each of which are incorporated herein by reference in their entirety).
The SmartCube® system is described in Example 2.2 of U.S. Pat. No. 9,758,529 and Example 289 of WIPO Publication No. WO2018/023070, the contents of each of which are incorporated herein by reference in their entirety.
According to the present disclosure, compounds identified may be evaluated using the SmartCube® system. The results of such analysis correlate certain patterns or combinations of behaviors to CNS effects along a percent probability scale of 0-100 where zero (O) reflects the limit of quantitation (LOQ).
The compounds of the present disclosure were evaluated for their CNS related properties (e.g., the treatment, prevention or diagnosis of CNS or CNS-related disorders and/or amelioration of symptoms) using neuropharmacological screening methods described in S. L. Roberts et al., Front. Neurosci. 2011, 5:103 (hereinafter referred to as “Roberts,” the contents of which are incorporated herein by reference in their entirety).
The SmartCube® system described herein was utilized to compare the behavioral signature of a test compound to a database of behavioral signatures obtained using a large set of diverse reference compounds (including but not limited to antipsychotics, anxiolytics, antidepressants and bipolar disorder medicine), thereby predicting the neuropharmacological effects of a test compound by similarity to major classes of compounds. It produces an activity signature indicating the probability that the activity of the test compound at the administered dose matches a given class of neuropharmacological agents. The test compound is simultaneously compared against multiple classes of agents; thus, a separate probability is generated for each behavioral effect measured (such as but not limited to anxiolytic activity and analgesic activity).
The compounds of the present disclosure were dissolved in a mixture of Pharmasolve™ (N-methyl-2-pyrrolidone (NMP)) and were injected i.p. 15 min. before the behavioral test. For each compound, injections were administered at different dose levels (e.g., 0.3, 1, 3, 10 and 30 mg per kg (mpk)). A compound's minimal effective dose (MED; see Table 3) is a measure of the compound's potency. The MED was defined as the dose (in mpk) having 50% or more total activity in SmartCube®. For each behavioral effect measured, results at the MED are presented. CNS activities of the compounds were recorded (see Table 2). In Table 1, a key to the percent probabilities (probability×100) for each behavioral effect (“X”) are defined provided, where LOQ is the limit of quantification.

SMILES	minimal effective dose [mg/kg]	AD: antidepressant, percent probability	AG: analgesic, percent probability	AP: antipsychotic, percent probability	AX: anxiolytic, percent probability	CE: cognitive enhancer, percent probability	HA: hallucinogenic, percent probability	MS: mood stabilizer, percent probability	PS, percent probability	SD: sedative hypnotic, percent probability	SE: side effects, percent probability	UN: uncharacterized CNS activity, percent probability	XG: anxiogenic, percent probability
COCC(C)N1C2CCC1c1ccccc12 (stereo not shown) [Compound 46, 11-(1-Methoxypropan-2-yl)-11-azatricyclo[6.2.1.0^2,7]undeca-2,4,6-triene hydrochloride]	> 30	+ (LOQ ≤ X < 5%)	++ (5% ≤ X < 25%)	+ (LOQ ≤ X < 5%)	+ (LOQ ≤ X < 5%)	+ (LOQ ≤ X < 5%)	+ (LOQ ≤ X < 5%)	+ (LOQ ≤ X < 5%)	+ (LOQ ≤ X < 5%)	+ (LOQ ≤ X < 5%)	+ (LOQ ≤ X < 5%)	+ (LOQ ≤ X < 5%)	+ (LOQ ≤ X < 5%)
Cc1ccc2c(c1)C1CCC2N1C(C)C (stereo not shown) [Compound 21, 4-Methyl-11-(propan-2-yl)-11-azatricyclo[6.2.1.0^2,7]undeca-2,4,6-triene hydrochloride]	10 to 30	++ (5% ≤ X < 25%)	+ (LOQ ≤ X < 5%)	+ (LOQ ≤ X < 5%)	++ (5% ≤ X < 25%)	+ (LOQ ≤ X < 5%)	+ (LOQ ≤ X < 5%)	+ (LOQ ≤ X < 5%)	+ (LOQ ≤ X < 5%)	+ (LOQ ≤ X < 5%)	++++ (50% ≤ X <1 00%)	++ (5% ≤ X < 25%)	+ (LOQ ≤ X < 5%)
CC(C)N1C2CCC1c1c(Cl)cccc12 (stereo not shown) [Compound 14, 3-Chloro-11-(propan-2-yl)-11-azatricyclo[6.2.1.0^2,7]undeca-2,4,6-triene hydrochloride]	> 30	+++ (25% ≤ X < 50%)	++ (5% ≤ X < 25%)	+ (LOQ ≤ X < 5%)	++ (5% ≤ X < 25%)	+ (LOQ ≤ X < 5%)	+ (LOQ ≤ X < 5%)	+ (LOQ ≤ X < 5%)	++ (5% ≤ X < 25%)	+ (LOQ ≤ X < 5%)	+ (LOQ ≤ X < 5%)	+ (LOQ ≤ X < 5%)	+ (LOQ ≤ X < 5%)
CC(C)N1C2C=CC1c1c(Cl)cccc12 (stereo not shown) [Compound 12, 3-Chloro-11-(propan-2-yl)-11-azatricyclo[6.2.1.0^2,7]undeca-2,4,6,9-tetraene hydrochloride]	> 30	+ (LOQ ≤ X < 5%)	+ (LOQ ≤ X < 5%)	+ (LOQ ≤ X < 5%)	+++ (25% ≤ X < 50%)	+ (LOQ ≤ X < 5%)	+ (LOQ ≤ X < 5%)	+ (LOQ ≤ X < 5%)	++ (5% ≤ X < 25%)	+ (LOQ ≤ X < 5%)	+ (LOQ ≤ X < 5%)	+ (LOQ ≤ X < 5%)	+ (LOQ ≤ X < 5%)
C1=CC2NC1c1ccccc12 [Compound 52, 11-Azatricyclo[6.2.1.0^2,7]undeca-2,4,6,9-tetraene hydrochloride]	> 30	+ (LOQ ≤ X < 5%)	+ (LOQ ≤ X < 5%)	+ (LOQ ≤ X < 5%)	+ (LOQ ≤ X < 5%)	+ (LOQ ≤ X < 5%)	+ (LOQ ≤ X < 5%)	+ (LOQ ≤ X < 5%)	+ (LOQ ≤ X < 5%)	+ (LOQ ≤ X < 5%)	+ (LOQ ≤ X < 5%)	+ (LOQ ≤ X < 5%)	+ (LOQ ≤ X < 5%)
Clc1cccc2c1C1C=CC2N1 (stereo not shown) [Compound 11, 3-Chloro-11-azatricyclo[6.2.1.0^2,7]undeca-2,4,6,9-tetraene hydrochloride]	> 30	+ (LOQ ≤ X < 5%)	+ (LOQ ≤ X < 5%)	+ (LOQ ≤ X < 5%)	++ (5% ≤ X < 25%)	++ (5% ≤ X < 25%)	+ (LOQ ≤ X < 5%)	+ (LOQ ≤ X < 5%)	+ (LOQ ≤ X < 5%)	+ (LOQ ≤ X < 5%)	+ (LOQ ≤ X < 5%)	++ (5% ≤ X < 25%)	+ (LOQ ≤ X < 5%)
C1=CC2c3ccccc3C1N2C1CCCC1 [Compound 54, 11-Cyclopentyl-11-azatricyclo[6.2.1.0^2,7]undeca-2,4,6,9-tetraene hydrochloride]	10 to 30	++++ (50% ≤ X <1 00%)	++ (5% ≤ X < 25%)	+ (LOQ ≤ X < 5%)	++ (5% ≤ X < 25%)	+ (LOQ ≤ X < 5%)	+ (LOQ ≤ X < 5%)	+ (LOQ ≤ X < 5%)	++ (5% ≤ X < 25%)	+ (LOQ ≤ X < 5%)	+ (LOQ ≤ X < 5%)	++ (5% ≤ X < 25%)	+ (LOQ ≤ X < 5%)
